Assay results: the NIST ThermoML archive (doi:10.1021/je1005483)
± gives the expanded uncertainty stated by the source.

Assays:
[1] = xn = mol fraction of the nth substance listed; conditions: 101.3 kPa, Liquid; for speed of sound: 298.15 K
[2] = molar heat capacity at constant pressure; conditions: 298.15 K; 101.3 kPa; Liquid; Flow calorimetry
[3] = 101.3 kPa, Liquid; for speed of sound: 298.15 K

CC#N [acetonitrile] + CC1COC(=O)O1
Conditions	speed of sound [m/s]
[1], x2 = 0	1279.6 ± 2.7

[1], x2 = 0
Conditions	mass density [kg/m3]
308.15 K	765.735 ± 0.38
318.15 K	755.763 ± 0.39

CC1COC(=O)O1 (configuration not stated) [4-methyl-1,3-dioxolan-2-one]
Conditions	molar heat capacity at constant pressure [J/K/mol]	speed of sound [m/s]
[2]	166.98 ± 1	–
[3]	–	1443 ± 2.9

[3]
Conditions	mass density [kg/m3]
308.15 K	1188.73 ± 0.34
318.15 K	1179.31 ± 0.33

CC#N [acetonitrile]
Conditions	speed of sound [m/s]
[3]	1279.6 ± 2.7

[3]
Conditions	mass density [kg/m3]
308.15 K	765.735 ± 0.38
318.15 K	755.763 ± 0.39

CC(=O)N(C)C [N,N-dimethylethanamide]
Conditions	speed of sound [m/s]
[3]	1458.7 ± 2.9

[3]
Conditions	mass density [kg/m3]
308.15 K	927.294 ± 0.19
318.15 K	918.616 ± 0.2

CC#N [acetonitrile] + CC(=O)N(C)C
Conditions	speed of sound [m/s]
[1], x2 = 0	1279.6 ± 2.7

[1], x2 = 0
Conditions	mass density [kg/m3]
308.15 K	765.735 ± 0.38
318.15 K	755.763 ± 0.39

CC(=O)N(C)C [N,N-dimethylethanamide] + CC#N
[1]
Conditions	speed of sound [m/s]
x1 = 0.04872	1286.5 ± 2.7
x1 = 0.1004	1297.5 ± 2.7
x1 = 0.1898	1315.5 ± 2.7
x1 = 0.2932	1336.4 ± 2.7
x1 = 0.4046	1357.3 ± 2.8
x1 = 0.503	1375.5 ± 2.8
x1 = 0.6044	1393.7 ± 2.8
x1 = 0.7074	1410.8 ± 2.9
x1 = 0.8048	1427.5 ± 2.9
x1 = 0.9035	1440 ± 2.9
x1 = 1	1458.7 ± 2.9

mass density [kg/m3], [1]
Conditions	308.15 K	318.15 K
x1 = 0.00994	768.688 ± 0.37	–
x1 = 0.01091	–	759.018 ± 0.38
x1 = 0.02031	771.713 ± 0.37	–
x1 = 0.02054	–	761.841 ± 0.38
x1 = 0.03016	774.535 ± 0.36	–
x1 = 0.0309	–	764.83 ± 0.38
x1 = 0.04069	777.504 ± 0.36	–
x1 = 0.04289	–	768.228 ± 0.37
x1 = 0.05104	780.389 ± 0.36	–
x1 = 0.0529	–	771.009 ± 0.37
x1 = 0.05848	782.424 ± 0.36	–
x1 = 0.05906	–	772.711 ± 0.37
x1 = 0.06932	785.313 ± 0.35	–
x1 = 0.06978	–	775.606 ± 0.36
x1 = 0.08223	788.745 ± 0.35	–
x1 = 0.08535	–	779.778 ± 0.36
x1 = 0.08742	–	780.299 ± 0.36
x1 = 0.09057	790.902 ± 0.35	–
x1 = 0.1009	793.541 ± 0.34	–
x1 = 0.1022	–	784.094 ± 0.35
x1 = 0.1438	–	794.432 ± 0.34
x1 = 0.1497	805.533 ± 0.33	–
x1 = 0.1834	–	803.73 ± 0.33
x1 = 0.1884	814.49 ± 0.32	–
x1 = 0.2301	–	813.975 ± 0.32
x1 = 0.237	824.887 ± 0.31	–
x1 = 0.2935	–	826.829 ± 0.31
x1 = 0.3015	837.769 ± 0.3	–
x1 = 0.387	–	843.966 ± 0.29
x1 = 0.4044	856.101 ± 0.28	–
x1 = 0.503	–	862.53 ± 0.29
x1 = 0.5085	872.475 ± 0.27	–
x1 = 0.6026	–	876.476 ± 0.29
x1 = 0.6251	888.44 ± 0.25	–
x1 = 0.7047	–	889.23 ± 0.3
x1 = 0.7059	898.16 ± 0.23	–
x1 = 0.8034	908.919 ± 0.21	–
x1 = 0.8085	–	900.68 ± 0.32
x1 = 0.9024	918.675 ± 0.2	–
x1 = 0.909	–	910.546 ± 0.35
x1 = 0.9117	919.547 ± 0.2	–
x1 = 0.9144	–	911.049 ± 0.35
x1 = 0.9215	–	911.696 ± 0.21
x1 = 0.9216	920.459 ± 0.2	–
x1 = 0.932	–	912.659 ± 0.21
x1 = 0.9322	921.402 ± 0.2	–
x1 = 0.941	922.202 ± 0.2	–
x1 = 0.9414	–	913.506 ± 0.2
x1 = 0.9515	923.129 ± 0.2	–
x1 = 0.9546	–	914.681 ± 0.36
x1 = 0.9614	924 ± 0.2	–
x1 = 0.963	–	915.423 ± 0.36
x1 = 0.9712	924.844 ± 0.19	–
x1 = 0.9716	–	916.181 ± 0.2
x1 = 0.9809	–	916.988 ± 0.2
x1 = 0.9811	925.7 ± 0.19	–
x1 = 0.9893	926.398 ± 0.19	–
x1 = 0.9911	–	917.856 ± 0.37
x1 = 1	927.294 ± 0.19	918.616 ± 0.2
